# Measured values from US20220105029A1, “BIODEGRADABLE CHITOSAN MICRONEEDLE PATCH FOR TRANSDERMAL DELIVERY FOR LIVESTOCK PAIN MANAGEMENT” (THE BOARD OF TRUSTEES OF THE UNIVERSITY OF ARKANSAS, priority 2020, published 2022).
# Experiments:
# [1] = cited from earlier work
# [2] = Solubility of meloxicam in solvents; format: physicochemical
smiles,measurement,setting,value
Cc1cnc(NC(=O)C2=C(O)c3ccccc3S(=O)(=O)N2C)s1 [meloxicam],solubility in acids,[1],not dissolving in acids
same,solubility in dimethyl sulfoxide (DMSO),[1],dissolves completely
same,solubility in acetic acid,[2],not soluble
